Assay results published in PubChem BioAssay (NCI).
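48-hour exposure; five concentrations; linearly interpolated endpoints. GI50: concentration for 50% inhibition of growth. TGI marks complete inhibition of growth.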

Assays:
Experiment in all cases: inhibition of tumour cell growth, NCI panel, 48 h
LOX IMVI melanoma = test system: LOX IMVI melanoma
MDA-MB-435 = test system: MDA-MB-435
OVCAR-3 ovarian = test system: OVCAR-3 ovarian
NCI-H460 lung = test system: NCI-H460 lung
NCI-H226 lung = test system: NCI-H226 lung
KM12 colon = test system: KM12 colon
T-47D breast = test system: T-47D breast
BT-549 breast = test system: BT-549 breast
UACC-257 melanoma = test system: UACC-257 melanoma
TK-10 renal = test system: TK-10 renal
HS 578T breast = test system: HS 578T breast
UACC-62 melanoma = test system: UACC-62 melanoma
SR leukemia = test system: SR leukemia
CCRF-CEM leukemia = test system: CCRF-CEM leukemia
DU-145 prostate = test system: DU-145 prostate
OVCAR-4 ovarian = test system: OVCAR-4 ovarian
HT29 colon = test system: HT29 colon
UO-31 renal = test system: UO-31 renal
786-0 renal = test system: 786-0 renal
HL-60(TB) leukemia = test system: HL-60(TB) leukemia
MOLT-4 leukemia = test system: MOLT-4 leukemia
ACHN renal = test system: ACHN renal
SK-MEL-28 melanoma = test system: SK-MEL-28 melanoma
RPMI-8226 leukemia = test system: RPMI-8226 leukemia
SK-MEL-5 melanoma = test system: SK-MEL-5 melanoma
SW-620 colon = test system: SW-620 colon
SNB-75 CNS = test system: SNB-75 CNS
PC-3 prostate = test system: PC-3 prostate
SN12C renal = test system: SN12C renal
A549 NSCLC = test system: A549 NSCLC
NCI-H23 lung = test system: NCI-H23 lung
HCC-2998 colon = test system: HCC-2998 colon
CAKI-1 renal = test system: CAKI-1 renal
NCI-H522 lung = test system: NCI-H522 lung
M14 melanoma = test system: M14 melanoma
MDA-MB-231 breast = test system: MDA-MB-231 breast
SNB-19 CNS = test system: SNB-19 CNS
HCT-116 colon = test system: HCT-116 colon
U251 CNS = test system: U251 CNS
OVCAR-5 ovarian = test system: OVCAR-5 ovarian
HOP-62 NSCLC = test system: HOP-62 NSCLC
HOP-92 NSCLC = test system: HOP-92 NSCLC
OVCAR-8 ovarian = test system: OVCAR-8 ovarian
SK-MEL-2 melanoma = test system: SK-MEL-2 melanoma
SK-OV-3 ovarian = test system: SK-OV-3 ovarian
COLO 205 colon = test system: COLO 205 colon
SF-268 CNS = test system: SF-268 CNS
MCF7 breast = test system: MCF7 breast
EKVX NSCLC = test system: EKVX NSCLC
IGROV1 ovarian = test system: IGROV1 ovarian
SF-295 CNS = test system: SF-295 CNS
SF-539 CNS = test system: SF-539 CNS
RXF 393 renal = test system: RXF 393 renal
K-562 leukemia = test system: K-562 leukemia
A498 renal = test system: A498 renal
HCT-15 colon = test system: HCT-15 colon
MALME-3M melanoma = test system: MALME-3M melanoma
NCI/ADR-RES ovarian = test system: NCI/ADR-RES ovarian

CC1(C)CC[C@]2(C(=O)O)CC[C@]3(C)C(=CC[C@@H]4[C@@]5(C)C/C(=C/c6cccnc6)[C@H](O)C(C)(C)[C@@H]5CC[C@]43C)[C@@H]2C1
GI50 (LOX IMVI melanoma): 8.28 µM
TGI (LOX IMVI melanoma): 24.2 µM
GI50 (MDA-MB-435): 15.2 µM
TGI (MDA-MB-435): > 100 µM
GI50 (OVCAR-3 ovarian): 7.08 µM
TGI (OVCAR-3 ovarian): 25.6 µM
GI50 (NCI-H460 lung): 4.14 µM
TGI (NCI-H460 lung): 26.4 µM
GI50 (NCI-H226 lung): 8.63 µM
TGI (NCI-H226 lung): 63 µM
GI50 (KM12 colon): 4.58 µM
TGI (KM12 colon): 32.7 µM
GI50 (T-47D breast): 9.89 µM
TGI (T-47D breast): > 100 µM
GI50 (BT-549 breast): 12.4 µM
TGI (BT-549 breast): > 100 µM
GI50 (UACC-257 melanoma): 24.9 µM
TGI (UACC-257 melanoma): 92.8 µM
GI50 (TK-10 renal): 21.7 µM
TGI (TK-10 renal): > 100 µM
GI50 (HS 578T breast): 21.8 µM
TGI (HS 578T breast): > 100 µM
GI50 (UACC-62 melanoma): 4.72 µM
TGI (UACC-62 melanoma): 36.4 µM
GI50 (SR leukemia): 13.2 µM
TGI (SR leukemia): > 100 µM
GI50 (CCRF-CEM leukemia): 2.88 µM
TGI (CCRF-CEM leukemia): 18.5 µM
GI50 (DU-145 prostate): 10.7 µM
TGI (DU-145 prostate): > 100 µM
GI50 (OVCAR-4 ovarian): 40 µM
TGI (OVCAR-4 ovarian): > 100 µM
GI50 (HT29 colon): 8.78 µM
TGI (HT29 colon): 42.1 µM
GI50 (UO-31 renal): 4.64 µM
TGI (UO-31 renal): 19.2 µM
GI50 (786-0 renal): 11.2 µM
TGI (786-0 renal): > 100 µM
GI50 (HL-60(TB) leukemia): 2.12 µM
TGI (HL-60(TB) leukemia): 5.94 µM
GI50 (MOLT-4 leukemia): 2.63 µM
TGI (MOLT-4 leukemia): 26 µM
GI50 (ACHN renal): 6.11 µM
TGI (ACHN renal): > 100 µM
GI50 (SK-MEL-28 melanoma): 11.1 µM
TGI (SK-MEL-28 melanoma): 35 µM
GI50 (RPMI-8226 leukemia): 3.02 µM
TGI (RPMI-8226 leukemia): 18.8 µM
GI50 (SK-MEL-5 melanoma): 6.71 µM
TGI (SK-MEL-5 melanoma): 23.2 µM
GI50 (SW-620 colon): 5.34 µM
TGI (SW-620 colon): > 100 µM
GI50 (SNB-75 CNS): 38.6 µM
TGI (SNB-75 CNS): > 100 µM
GI50 (PC-3 prostate): 2.66 µM
TGI (PC-3 prostate): 72.4 µM
GI50 (SN12C renal): 4.7 µM
TGI (SN12C renal): > 100 µM
GI50 (A549 NSCLC): 3.65 µM
TGI (A549 NSCLC): > 100 µM
GI50 (NCI-H23 lung): 9.64 µM
TGI (NCI-H23 lung): > 100 µM
GI50 (HCC-2998 colon): 11.4 µM
TGI (HCC-2998 colon): 54.4 µM
GI50 (CAKI-1 renal): 10.2 µM
TGI (CAKI-1 renal): > 100 µM
GI50 (NCI-H522 lung): 8.97 µM
TGI (NCI-H522 lung): > 100 µM
GI50 (M14 melanoma): 16.7 µM
TGI (M14 melanoma): 51.3 µM
GI50 (MDA-MB-231 breast): 14.9 µM
TGI (MDA-MB-231 breast): 57.3 µM
GI50 (SNB-19 CNS): 5.55 µM
TGI (SNB-19 CNS): > 100 µM
GI50 (HCT-116 colon): 5.12 µM
TGI (HCT-116 colon): 22.4 µM
GI50 (U251 CNS): 5.59 µM
TGI (U251 CNS): 32.7 µM
GI50 (OVCAR-5 ovarian): 11.2 µM
TGI (OVCAR-5 ovarian): 44 µM
GI50 (HOP-62 NSCLC): 13 µM
TGI (HOP-62 NSCLC): > 100 µM
GI50 (HOP-92 NSCLC): 2.22 µM
TGI (HOP-92 NSCLC): 10.1 µM
GI50 (OVCAR-8 ovarian): 9.47 µM
TGI (OVCAR-8 ovarian): > 100 µM
GI50 (SK-MEL-2 melanoma): 17 µM
TGI (SK-MEL-2 melanoma): 66.1 µM
GI50 (SK-OV-3 ovarian): 19 µM
TGI (SK-OV-3 ovarian): > 100 µM
GI50 (COLO 205 colon): 9.71 µM
TGI (COLO 205 colon): 29.6 µM
GI50 (SF-268 CNS): 8.68 µM
TGI (SF-268 CNS): > 100 µM
GI50 (MCF7 breast): 5.25 µM
TGI (MCF7 breast): > 100 µM
GI50 (EKVX NSCLC): 6.02 µM
TGI (EKVX NSCLC): 56.6 µM
GI50 (IGROV1 ovarian): 5.13 µM
TGI (IGROV1 ovarian): > 100 µM
GI50 (SF-295 CNS): 4.3 µM
TGI (SF-295 CNS): 87.4 µM
GI50 (SF-539 CNS): 5.54 µM
TGI (SF-539 CNS): 24 µM
GI50 (RXF 393 renal): 7.28 µM
TGI (RXF 393 renal): 36.6 µM
GI50 (K-562 leukemia): 3.1 µM
TGI (K-562 leukemia): > 100 µM
GI50 (A498 renal): > 100 µM
TGI (A498 renal): > 100 µM
GI50 (HCT-15 colon): 3.85 µM
TGI (HCT-15 colon): 25.6 µM
GI50 (MALME-3M melanoma): 13.4 µM
TGI (MALME-3M melanoma): 36.2 µM
GI50 (NCI/ADR-RES ovarian): 9.82 µM
TGI (NCI/ADR-RES ovarian): > 100 µM
